Each structure is given as a SMILES string.

Assay [1] deals with T1, 5-HT3 receptor (Cavia porcellus, UniProt O70212).
T1 construct: Distal colons were excised from male Hartley guinea pigs; from tissue; host or cells: distal colon strips of male Hartley guinea pigs
T1 sequence (O70212 24-490 limits assumed): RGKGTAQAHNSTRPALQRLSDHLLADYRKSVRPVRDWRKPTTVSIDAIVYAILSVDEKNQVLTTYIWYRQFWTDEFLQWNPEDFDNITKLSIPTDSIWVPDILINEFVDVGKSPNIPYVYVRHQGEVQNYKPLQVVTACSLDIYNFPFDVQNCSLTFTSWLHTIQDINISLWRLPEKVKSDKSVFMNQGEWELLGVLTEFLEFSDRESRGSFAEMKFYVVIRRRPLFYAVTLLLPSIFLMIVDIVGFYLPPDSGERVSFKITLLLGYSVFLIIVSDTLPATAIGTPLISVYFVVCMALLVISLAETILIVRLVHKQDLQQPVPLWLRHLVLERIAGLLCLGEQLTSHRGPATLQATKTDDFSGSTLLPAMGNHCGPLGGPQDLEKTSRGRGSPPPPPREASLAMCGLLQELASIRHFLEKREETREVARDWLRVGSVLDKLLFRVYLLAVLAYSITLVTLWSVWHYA
Put plainly: contractile effects on the isolated colon from a guinea pig (5-HT3 receptor agonistic activity). Also noted: species or system guinea pig (male Hartley). The following applies: for Emax: guinea pig, read-out: Max. response; for Relative potency: relative EC50 value, based on that of 5-HT as standard value (1). An excerpt: Distal colons were excised from male Hartley guinea pigs (500 to 800 g) to prepare strips of about 20 mm.
Each strip was longitudinally suspended in an organ bath, and contractile response was isometrically measured.

Assay [2] concerns 5-HT3 receptor. Put plainly: Facilitation of defecation in rat. The class given is in vivo, rat (male Wistar). The settings on record: 10 mg/kg s.c.; number of feces excreted for four hours after administration. The procedure:
In the male Wistar rat (200-300 g), facilitating effects on defecation by stimulation of 5-HT3 receptor [Miyata et al., J. Pharmacol. Exp. Ther., 261, 297 (1992)] were studied. The compound (10 mg/kg) was subcutaneously administered to the rat and the number of feces excreted for four hours after the administration was counted.

Turning to `c1ccc2c(c1)Cc1sc([C@@H]3C[C@@H]4CCCN4C3)nc1-2` (relative stereo) [Ex. 66, (3R*,5S*)-3-(8H-indeno[1,2-d]thiazol-2-yl)-1-azabicyclo[3.3.0]octane hemifumarate], the Emax at 5-HT3 receptor [1] came out at 57%.

In the case of `NCCc1nc2c(s1)Cc1ccccc1-2.O=C(O)/C=C/C(=O)O` [Ex. 9, 2-(2-aminoethyl)-8H-indeno[1,2-d]thiazole fumarate], on 5-HT3 receptor [1], the Emax was found to be 75% and the Relative potency is on record as 1/2.

As for `O=C(O)/C=C/C(=O)O.c1ccc(-c2csc(C3CCCNC3)n2)cc1` (centres unmarked) [Ex. 46, 4-Phenyl-2-(3-piperidyl)thiazole fumarate], on 5-HT3 receptor [1], the Emax is 52% and the Relative potency is given as 1/2.

For the compound `c1ccc2c(c1)Cc1sc(C3CCNC3)nc1-2` (centres unmarked) [Ex. 52, 2-(3-pyrrolidinyl)-8H-indeno[1,2-d]thiazole], at 5-HT3 receptor [1], the Emax is 77%. For the same compound, in the assay with 5-HT3 receptor [2], the “facilitating effect on defecation” value is reported as “exhibited facilitating effect on defecation”.

On to `c1csc(-c2csc(CC3CCCCN3)n2)c1` (centres unmarked) [Ex. 59, 2-[[4-(2-Thienyl)-2-thiazolyl]methyl]piperidine hemifumarate], for which, on 5-HT3 receptor [1], the Emax amounted to 45% and the Relative potency is recorded as 1/3.

As for `NC1(CCc2nc3c(s2)Cc2ccccc2-3)CCCCC1` [Ex. 70, 2-[2-(1-aminocyclohexyl)ethyl]-8H-indeno[1,2-d]thiazole], at 5-HT3 receptor [1], the Emax was determined as 23%.

As to `c1ccc2c(c1)Cc1sc(CCN3CCCCC3)nc1-2` [Ex. 71, 2-(2-piperidinoethyl)-8H-indeno[1,2-d]thiazole], the Emax on 5-HT3 receptor [1] is 51%.

Source of the values: patent US5834499A, “5-HT3 receptor agonist, novel thiazole derivative and intermediate thereof” (Yamanouchi Pharmaceutical Co., Ltd., priority 1994, dated 1998).
